Measured values published in patent publication US20260224555A1, “NEW PHENYLQUINOLONE COMPOUND HAVING ANTIBACTERIAL AND ANTI-CANCER FUNCTIONS AND PREPARATION THEREOF” (AlphaMol Science Ltd (Shanghai), priority 2022, published 2026).
Converted amounts (≈) assume the structure as drawn. Like-named read-outs stand apart in the source and are kept apart here.

Tests used:
[1] = tested on: methicillin-resistant Staphylococcus aureus; type: in vivo, Kunming mice; details: for reduction of necrosis area compared with the control group: 4 consecutive days, MRSA skin infection in mice
Protocol: Kunming mice (20±2 g) were anesthetized with chloral hydrate and shaved, and then 50 μL of 4×10^7 CFU/mL of methicillin-resistant Staphylococcus aureus was subcutaneously injected. One day later, 100 μL of 0.02, 2 and 200 mg/kg of Example 34 were subcutaneously injected respectively, and 100 μL of normal saline was injected for the control group. The drug was administered for consecutive 4 days, and mice were euthanized on the 5th day, and the area of abscess was measured.

E. coli ATCC 25922 = assay: In vitro antibacterial activity assay (MIC, broth dilution); type: cell-based; details: Escherichia coli, ATCC25922
Source text: (§1) The method used to indicate the activity of the compounds in this example is to record the minimum inhibitory concentration (MIC) of the compounds against bacteria. The specific experimental method is as follows:
(§2) 1. The bacterial liquid cultured from a single colony was taken, and diluted into autoclaved CAMHB broth in a ratio of 1:1000, and mixed well.
(§3) 2. The prepared drug solution was filtered through a sterile 0.22 µm syringe filter and placed in a sterile EP tube for later use.
(§4) 3. A 96-well plate was taken, and 20 µL of drug solution ([…]) was added to each well in the first column of the 96-well plate. Then, 180 µL of diluted bacterial liquid was added and mixed well (Perform 3 replicate rows for each drug).
(§5) The same process was performed for the hydrochloride drug.
(§6) 4. 100 μL of diluted bacterial liquid was added to each well in the remaining 11 columns of the 96-well plate. Drugs are the same as above.
(§7) 5. Serial dilution: 100 μL of liquid was taken from the first column to the second column, mixed well, then 100 μL of liquid was taken from the second column to the third column, mixed well, and so on, sequentially diluting down to the last column (column 12). After mixing column 12 well, 100 μL of liquid thereof was discarded. The drug concentration in each well was decreased by two-fold serially (the concentration in the first well is 40 μg/mL).
(§8) 6. Blank CAMHB broth without added bacteria liquid was added to 3 blank wells in the 96-well plate, as negative control.
(§9) 7. The diluted bacterial liquid was added to 3 blank wells in the 96-well plate, as positive control.
(§10) 8. Incubated at 37° C. for 16 hours.
(§11) 9. Results reading: the minimum inhibitory concentration is the minimum drug concentration at which no bacterial growth is visible to the naked eye and without turbidity.

S. aureus ATCC 43300 = assay: as above; type: cell-based; details: Staphylococcus aureus, ATCC43300
Source text: as §1, §2, §3, §4, §5, §6, §7, §8, §9, §10, §11

Hela = assay: In vitro anticancer activity test (MTT cell proliferation); type: cell-based; details: Homo sapiens, average proliferation inhibition rate at the dosage of 40 μM, read-out: Hela Average inhibition rate %
Protocol: The anticancer activity of the compounds was tested using an in vitro cancer cell tests. The specific test method is as follows:
1. Cell recovery and culture method: the cryovial was taken out from the liquid nitrogen container firstly, soaked directly in 37° C. warm water, and shaked from time to time to let it thaw as soon as possible. Then, the cryovial was transferred to a clean bench, and the lid was open. The cell suspension was taken into a centrifuge tube using a rubber-tipped dropper and more than 10 times the culture medium was added, mixed well, and centrifuged at 50 g for 5 minutes. Then, the supernatant was discarded, complete culture medium containing 10% fetal bovine serum was added to resuspend the cells, the cells was counted, the cell density was adjusted, and then inoculated into a culture bottle. The culture bottle was placed in a cell culture incubator at 5% CO2 and 37° C. The complete culture medium was replaced once the next day and the culture was continued.
2. Cell passaging method: adherent cells in the logarithmic growth phase were placed in a clean bench, the original culture medium was discarded, and washed three times with 1×PBS. An appropriate amount of 0.25% trypsin digestion solution was added to moisten the cells, and then the trypsin solution was aspirated. The cells were placed in a cell culture incubator at 5% CO2 and 37° C. for digestion for a suitable time, and observed under a microscope. When 90% of the cells become round, the cells were moved immediately to the clean bench and complete culture medium was added to terminate digestion. Then, the cells were dislodged by pipetting up and down with a rubber-tipped dropper to single cells. The cells were counted, and the cell density was adjusted. The cells were inoculated into a suitable culture bottle or dish, added enough complete culture medium, and placed in a cell culture incubator at 5% CO2 and 37° C. for static culture.
For suspension cells in the logarithmic phase, the original culture medium was directly centrifuged at 50 g for 5 minutes, the supernatant was discarded, and the cells were washed once with PBS and centrifuged. After discarding the supernatant, the complete culture medium was added and the cells were dispersed using a rubber-tipped dropper. The cells are counted, and the cell density was adjusted. The cells were inoculated into appropriate culture bottles or culture dishes, and sufficient complete culture medium was added, and the cells were cultured in a cell culture incubator at 5% CO2 and 37° C.
3. Cell proliferation assay: cells in good state in logarithmic phase were taken and appropriate amount of the cells was inoculated into 96-well plates according to the cell passage treatment method, with each well containing 180 μL complete medium. After the cells growth was recovered and the number of cells in each well is 5000±500, a drug was added for treatment.
After drug treatment during the experimental time, MTT solution with a final concentration of 0.5 mg/mL was added to each well, and placed in a cell culture incubator at 5% CO2 and 37° C. to allow a fully reaction of MTT with cells. After 4 hours, the solution in the 96-well plate was discarded, 100 µL of DMSO was added, and shaked to dissolve the formazan precipitated at the bottom of the plate, and the absorbance value of samples was detected at a wavelength of 570 nm using a microplate reader. Calculation method of cell viability rate:
Table 4 lists some compounds that have inhibitory effects against both of bacteria and cancer cells. In the table, the inhibitory effects against cancer cells are shown: the average proliferation inhibition rate (%) against cancer cells at the dosage of 40 μM.

[2] = Table 3, read-out: MIC E. coli ATCC 25922
[3] = Table 3, read-out: MIC S. aureus ATCC 43300
[4] = Table 4, read-out: E. coli ATCC 25922 MIC
[5] = Table 4, read-out: S. aureus ATCC 43300 MIC

Compound	MIC (E. coli ATCC 25922; [2])	MIC (S. aureus ATCC 43300; [3])	further results
O=C(O)c1cn(C2CC2)c2cc(-c3ccc(S(=O)(=O)NCCCCCCO)cc3)c(F)cc2c1=O [Example 29, 1-cyclopropyl-6-fluoro-7-(4-(N-(6-hydroxyhexyl)sulfamoyl)phenyl)-4-oxo-1,4-dihydroquinolin-3-carboxylic acid]			reduction of necrosis area compared with the control group ([1]; 0.02 mg/kg subcutaneous): 78.09%; reduction of necrosis area compared with the control group ([1]; 2 mg/kg subcutaneous): 81.21%; antibacterial effect in skin infection model ([1]; (corresponding to 0.02 mg/kg, 200 mg/kg)): good antibacterial effect; observation at the subcutaneous administration site ([1]; mouse, in vivo, sc, 200 mg/kg): certain bleeding symptom in body surface appeared at the subcutaneous administration site
Nc1cc(-c2nc3c(cc2F)c(=O)c(C(=O)O)cn3C2CC2)ccn1.O=CO [Example 56]	0.1 to 1 µg/mL	0.1 to 1 µg/mL	
O=C(O)c1cn(C2CC2)c2cc(-c3ccnc(NC(=O)C(F)(F)F)c3)c(F)cc2c1=O [Example 57]	0.1 to 1 µg/mL (≈ 0.23 to 2.3 µM)	0.1 to 1 µg/mL (≈ 0.23 to 2.3 µM)	
CS(=N)(=O)c1ccc(-c2cc3c(cc2F)c(=O)c(C(=O)O)cn3C2CC2)cc1 (stereo not drawn) [Example 64]	0.1 to 1 µg/mL (≈ 0.25 to 2.5 µM)	0.1 to 1 µg/mL (≈ 0.25 to 2.5 µM)	
COc1cc(-c2c(F)cc3c(=O)c(C(=O)O)cn(C4CC4)c3c2OC)ccc1NC(C)=O [Example 66]	0.1 to 1 µg/mL (≈ 0.227 to 2.27 µM)	0.1 to 1 µg/mL (≈ 0.227 to 2.27 µM)	
CCn1cc(C(=O)O)c(=O)c2cc(OC)c(-c3ccc(N)nc3)c(C)c21 [Example 74]	0.1 to 1 µg/mL (≈ 0.283 to 2.83 µM)	0.1 to 1 µg/mL (≈ 0.283 to 2.83 µM)	
COc1c(-c2ncncn2)c(F)cc2c(=O)c(C(=O)O)cn(C3CC3)c12 [Example 77]	0.1 to 1 µg/mL (≈ 0.281 to 2.81 µM)	0.1 to 1 µg/mL (≈ 0.281 to 2.81 µM)	
CCCCCNS(=O)(=O)c1ccc(-c2c(F)cc3c(=O)c(C(=O)O)cn(C4CC4)c3c2OC)cc1 [Example 80]	0.1 to 1 µg/mL (≈ 0.199 to 1.99 µM)	≤ 0.1 µg/mL	MIC (E. coli ATCC 25922; [4]): ≤ 1 µg/mL; MIC (S. aureus ATCC 43300; [5]): ≤ 1 µg/mL; inhibition at 40 µM (Hela): ≥ 50%
Nc1cnc(-c2cc3c(cc2F)c(=O)c(C(=O)O)cn3C2CC2)nc1 [Example 83]	0.1 to 1 µg/mL (≈ 0.294 to 2.94 µM)	0.1 to 1 µg/mL (≈ 0.294 to 2.94 µM)	
COc1c(-c2ccc([S+]([O-])CCO)cc2)c(F)cc2c(=O)c(C(=O)O)cn(C3CC3)c12 (stereo not drawn) [Example 86]	0.1 to 1 µg/mL (≈ 0.224 to 2.24 µM)	≤ 0.1 µg/mL	MIC (E. coli ATCC 25922; [4]): ≤ 1 µg/mL; MIC (S. aureus ATCC 43300; [5]): ≤ 1 µg/mL; inhibition at 40 µM (Hela): ≥ 20%
O=C(O)c1cn(C2CC2)c2c(Cl)c(-c3ccc(S(=O)(=O)NCCO)cc3)c(F)cc2c1=O [Example 89]	0.1 to 1 µg/mL (≈ 0.208 to 2.08 µM)	≤ 0.1 µg/mL	MIC (E. coli ATCC 25922; [4]): ≤ 1 µg/mL; MIC (S. aureus ATCC 43300; [5]): ≤ 1 µg/mL; inhibition at 40 µM (Hela): ≥ 20%
